Measured values: patent US11542262B2, “Phosphatidylinositol 3-kinase inhibitors” (NANJING ZHENGXIANG PHARMACEUTICALS CO., LTD., priority 2019, dated 2023)
≈ marks a conversion by molar mass, not a printed value.

Assays:
PI3Kγ = PI3Kγ (Homo sapiens, UniProt P48736); test: ADP-Glo luminescent assay, enzymatic activity of PI3K gamma; format: biochemical; settings: ATP 25 μM; read-out: PI3K gamma (nM) inhibitory activity (IC50)
Experimental: The compounds would be tested from 1 or 10 μM, 3-fold dilution for 10 doses, in duplicate.
(§1) Compound preparation: Dilute a compound to 100× of the final desired highest inhibitor concentration in reaction by 100% DMSO. Transfer 100 μl of this compound dilution to a well in a 96-well plate and serially dilute it with DMSO for a total of 10 concentrations.
Kinase reaction: Prepare a solution of PI3K in 1× kinase buffer at 2-fold the final concentration of each reagent in the assay. Control wells contain 1× kinase buffer without enzyme. Prepare substrate solution of PIP2 substrate and ATP in 1× kinase reaction buffer at 2-fold of the final concentration. Add concentration substrate solution to each well to the final concentration. Cover the assay plate, shake to mix, and incubate at room temperature for 1 hour. Add 5 μl of ADP-Glo reagent to each well to stop the reaction. […] Add 10 ul Kinase Detection Reagent to each well, shake 1 min, equilibrate for 30 min before reading on a luminescence plate reader.
(§2) Data Analysis: Convert RLU values to percent inhibition values as Percent inhibition=(max−sample RLU)/(max−min)*100. “min”—no enzyme control; “max”—DMSO control. Fit the data in XLFit excel add-in version 5.4.0.8 to obtain IC50 values. Y=Bottom+(Top−Bottom)/(1+(IC50/X)^HillSlope).

PI3Kδ = PI3Kδ (Homo sapiens, UniProt O00329); test: ADP-Glo luminescent assay, enzymatic activity of PI3K delta; format: biochemical; settings: ATP 25 μM; read-out: PI3K delta (nM) inhibitory activity (IC50)
Chain of PI3Kδ (O00329 whole entry, species assumed, canonical isoform): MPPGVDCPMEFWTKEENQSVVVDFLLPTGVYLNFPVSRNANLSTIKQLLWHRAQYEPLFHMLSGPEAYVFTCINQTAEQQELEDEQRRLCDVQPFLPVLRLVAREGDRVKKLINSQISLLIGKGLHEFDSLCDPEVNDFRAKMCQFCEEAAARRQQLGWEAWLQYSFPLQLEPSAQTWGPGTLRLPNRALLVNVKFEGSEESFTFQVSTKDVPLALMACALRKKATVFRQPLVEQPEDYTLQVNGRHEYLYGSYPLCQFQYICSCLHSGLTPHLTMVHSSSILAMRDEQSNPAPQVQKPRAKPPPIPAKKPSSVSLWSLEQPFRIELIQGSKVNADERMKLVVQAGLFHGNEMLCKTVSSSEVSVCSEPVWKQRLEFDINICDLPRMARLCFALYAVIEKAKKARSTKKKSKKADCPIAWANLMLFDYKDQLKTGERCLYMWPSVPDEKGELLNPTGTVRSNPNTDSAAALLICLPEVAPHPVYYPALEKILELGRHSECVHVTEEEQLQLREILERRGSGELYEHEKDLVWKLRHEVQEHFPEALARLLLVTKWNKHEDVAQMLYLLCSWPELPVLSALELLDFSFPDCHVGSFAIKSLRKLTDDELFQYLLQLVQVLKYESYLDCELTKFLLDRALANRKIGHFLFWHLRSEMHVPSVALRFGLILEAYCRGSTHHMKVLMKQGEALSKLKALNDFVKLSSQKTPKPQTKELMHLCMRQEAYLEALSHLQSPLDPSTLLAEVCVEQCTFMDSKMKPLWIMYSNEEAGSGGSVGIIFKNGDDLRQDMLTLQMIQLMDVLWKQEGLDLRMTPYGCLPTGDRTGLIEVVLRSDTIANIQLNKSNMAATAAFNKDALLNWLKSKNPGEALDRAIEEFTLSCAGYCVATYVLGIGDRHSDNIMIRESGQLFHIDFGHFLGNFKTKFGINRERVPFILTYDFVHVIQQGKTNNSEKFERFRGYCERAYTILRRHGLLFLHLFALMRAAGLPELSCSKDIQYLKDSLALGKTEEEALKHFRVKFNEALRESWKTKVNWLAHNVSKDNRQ
Chain of PI3Kδ (P27986 whole entry partner, species assumed, canonical isoform): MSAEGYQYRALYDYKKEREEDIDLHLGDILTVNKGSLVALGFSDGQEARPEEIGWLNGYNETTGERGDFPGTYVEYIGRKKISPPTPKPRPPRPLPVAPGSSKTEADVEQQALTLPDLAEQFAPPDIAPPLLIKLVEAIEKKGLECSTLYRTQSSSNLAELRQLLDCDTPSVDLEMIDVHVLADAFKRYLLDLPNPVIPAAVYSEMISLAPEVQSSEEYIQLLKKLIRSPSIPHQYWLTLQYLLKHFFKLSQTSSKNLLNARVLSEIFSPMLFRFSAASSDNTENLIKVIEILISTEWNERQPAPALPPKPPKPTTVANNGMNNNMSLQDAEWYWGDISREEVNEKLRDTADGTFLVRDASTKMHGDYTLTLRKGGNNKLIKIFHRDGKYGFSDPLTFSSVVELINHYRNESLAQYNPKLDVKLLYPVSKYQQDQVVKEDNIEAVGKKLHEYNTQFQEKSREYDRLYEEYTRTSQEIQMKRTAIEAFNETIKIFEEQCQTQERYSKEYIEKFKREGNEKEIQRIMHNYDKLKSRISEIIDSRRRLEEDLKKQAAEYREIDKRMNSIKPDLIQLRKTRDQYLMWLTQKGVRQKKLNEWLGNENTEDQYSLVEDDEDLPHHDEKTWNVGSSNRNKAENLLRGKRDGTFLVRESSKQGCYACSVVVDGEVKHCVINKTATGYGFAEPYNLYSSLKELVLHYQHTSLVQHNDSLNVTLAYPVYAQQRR
Experimental: Enzymatic activity of PI3K isoforms: Enzymatic activity of the class I PI3K isoforms in the presence of the compounds of Table 1 was measured using ADP-Glo luminescent assay against PI3Kα, PI3Kβ, PI3Kδ and PI3Kγ with ATP concentration at 25 μM. […] The compounds would be tested from 1 or 10 μM, 3-fold dilution for 10 doses, in duplicate.
as §1
Kinase reaction: Prepare a solution of PI3K in 1× kinase buffer at 2-fold the final concentration of each reagent in the assay. Control wells contain 1× kinase buffer without enzyme. Prepare substrate solution of PIP2 substrate and ATP in 1× kinase reaction buffer at 2-fold of the final concentration. Add concentration substrate solution to each well to the final concentration. Cover the assay plate, shake to mix, and incubate at room temperature for 1 hour. Add 5 μl of ADP-Glo reagent to each well to stop the reaction. Mix briefly with a quick spin, shake slowly on the shaker for 120 min. Add 10 ul Kinase Detection Reagent to each well, shake 1 min, equilibrate for 30 min before reading on a luminescence plate reader.
as §2

PI3K gamma = target: T1, PI3K gamma (Mus musculus, UniProt Q9JHG7); test: Raw264.7 cell assay: phosphorylation of AKT in C5a stimulated RAW264.7 cells (AlphaLISA); format: cell-based; settings: pAKT, read-out: PI3K gamma Raw264.7 cell (nM) cellular activity (IC50)
T1 construct: endogenous in cells; host or cells: RAW264.7
T1 sequence (Q9JHG7 whole entry): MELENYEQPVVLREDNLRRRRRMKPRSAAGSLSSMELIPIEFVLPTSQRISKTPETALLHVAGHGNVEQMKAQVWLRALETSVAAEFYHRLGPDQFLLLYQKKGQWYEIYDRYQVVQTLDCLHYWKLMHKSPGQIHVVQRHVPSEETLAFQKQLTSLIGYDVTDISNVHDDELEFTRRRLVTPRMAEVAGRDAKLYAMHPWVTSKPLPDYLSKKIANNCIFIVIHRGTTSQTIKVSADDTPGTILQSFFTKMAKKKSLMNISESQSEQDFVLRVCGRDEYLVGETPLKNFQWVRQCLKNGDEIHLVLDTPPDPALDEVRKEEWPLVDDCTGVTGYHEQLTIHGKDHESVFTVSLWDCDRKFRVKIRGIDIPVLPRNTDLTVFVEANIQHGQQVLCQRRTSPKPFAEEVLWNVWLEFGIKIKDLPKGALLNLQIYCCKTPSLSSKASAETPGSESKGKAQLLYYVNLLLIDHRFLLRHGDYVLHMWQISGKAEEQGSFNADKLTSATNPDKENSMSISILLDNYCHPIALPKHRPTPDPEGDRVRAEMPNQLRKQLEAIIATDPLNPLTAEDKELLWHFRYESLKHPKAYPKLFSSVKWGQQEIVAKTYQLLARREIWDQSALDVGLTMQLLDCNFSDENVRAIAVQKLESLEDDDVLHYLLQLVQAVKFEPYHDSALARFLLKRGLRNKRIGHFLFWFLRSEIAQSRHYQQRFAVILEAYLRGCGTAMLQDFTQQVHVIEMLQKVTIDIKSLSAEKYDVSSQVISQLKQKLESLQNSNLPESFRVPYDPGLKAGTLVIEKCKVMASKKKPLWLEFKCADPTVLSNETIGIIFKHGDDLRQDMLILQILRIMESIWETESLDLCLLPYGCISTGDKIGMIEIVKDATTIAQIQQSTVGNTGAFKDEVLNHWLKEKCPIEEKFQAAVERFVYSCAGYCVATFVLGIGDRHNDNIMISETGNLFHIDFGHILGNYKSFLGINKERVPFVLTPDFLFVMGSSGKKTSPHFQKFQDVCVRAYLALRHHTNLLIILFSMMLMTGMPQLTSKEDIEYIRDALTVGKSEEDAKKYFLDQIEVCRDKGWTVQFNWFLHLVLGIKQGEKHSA
T1 sequence (Q5SW28 whole entry partner): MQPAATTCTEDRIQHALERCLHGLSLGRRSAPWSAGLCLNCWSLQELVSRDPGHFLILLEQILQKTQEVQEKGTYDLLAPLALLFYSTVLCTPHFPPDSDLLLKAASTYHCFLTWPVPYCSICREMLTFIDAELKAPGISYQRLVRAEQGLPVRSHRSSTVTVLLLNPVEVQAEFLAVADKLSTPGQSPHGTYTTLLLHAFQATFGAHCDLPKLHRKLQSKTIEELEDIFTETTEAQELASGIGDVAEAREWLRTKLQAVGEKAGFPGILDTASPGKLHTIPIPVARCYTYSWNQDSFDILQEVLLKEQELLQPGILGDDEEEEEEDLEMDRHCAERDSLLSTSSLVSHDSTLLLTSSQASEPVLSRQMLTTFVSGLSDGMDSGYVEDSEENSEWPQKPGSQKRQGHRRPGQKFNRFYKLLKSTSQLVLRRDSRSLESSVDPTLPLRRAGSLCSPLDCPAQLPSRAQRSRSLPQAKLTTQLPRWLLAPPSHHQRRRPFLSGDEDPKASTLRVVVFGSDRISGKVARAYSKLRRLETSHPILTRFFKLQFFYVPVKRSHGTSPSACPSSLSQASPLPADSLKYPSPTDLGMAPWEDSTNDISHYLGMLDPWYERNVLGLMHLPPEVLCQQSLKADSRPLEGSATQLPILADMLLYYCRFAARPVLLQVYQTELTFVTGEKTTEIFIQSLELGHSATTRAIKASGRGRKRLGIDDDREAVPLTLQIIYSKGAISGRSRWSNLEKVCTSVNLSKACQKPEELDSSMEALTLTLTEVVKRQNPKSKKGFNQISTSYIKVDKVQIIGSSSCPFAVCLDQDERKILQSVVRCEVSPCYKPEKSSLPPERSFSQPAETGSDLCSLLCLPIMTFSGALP
Experimental: This study aims to determine the inhibitory effect of compounds on PI3K gamma and PI3K delta in corresponding cell based assays. PI3K gamma activity was reflected by phosphorylation of AKT in C5a stimulated RAW264.7 cells, and PI3K delta activity was reflected by phosphorylation of AKT in anti-IgM stimulated Raji cells. Phosphorylation of AKT in cells was determined using AlphaLISA technology from PerkinElmer.
Raw264.7 cell assay: Prepare Passage 15 Raw264.7 cell and add 6 μL of 30K cells per well in 384-well plate by multidrop. Centrifuge at 500 RPM for 30 s and incubate for 2 hours at 37° C., 5% CO2. Add 30 nL compound by echo and incubate for 30 min at 37° C., 5% CO2. […] Add 2 μL of 5× lysis buffer by multidrop, incubate for 10 min on a plate shaker. Add 5 μL acceptor mix provided in the kit, centrifuge at 1000 RPM for 1 min. Add 5 μL donor mix provided in the kit, centrifuge at 1000 RPM for 1 min and incubate in dark for 2 hours at 25° C. Read AlphaLISA signal on Envision.
Y=Bottom+(Top−Bottom)/(1+10^((Log IC50−X)*Hill Slope)) X: Log of cpd concentration Y: Inhibition

[1] = Kinetic solubility test in PBS pH7.4; format: physicochemical; settings: aqueous buffer, kinetic from dmso stock; PBS pH 7.4, 25° C., 2 hours
Experimental: 15 μL of stock solution (10 mM) was placed in order into their proper 96-well rack. 485 μL of PBS pH7.4 was added into each vial of the cap-less Solubility Sample plate. The assay was performed in singlet. Add one stir stick to each vial and seal using a molded PTFE/Silicone plug. […] After completion of the 2 hours, the samples from the Solubility Sample plate were transferred into the filter plate. all the samples were filtered using the Vacuum Manifold. Aliquot of 5 μL was taken from the filtrate followed by addition of 495 μL of a mixture of H2O and acetonitrile containing internal standard (1:1). A certain proportion of ultrapure water was used to dilute the diluent according to the peak shape. The dilution factor was changed according to the solubility values and the LC-MS signal response.
Preparation of 3 μM standards (STD): From the 10 mM DMSO STD plate, 6 μL was transferred into the remaining empty plate, and then 194 μL of DMSO was added to that plate to have a STD concentration of 300 μM. From the 300 μM DMSO STD plate, 5 μL was transferred into the remaining empty plate, and then 495 μL of a mixture of H2O and acetonitrile containing internal standard (1:1) was added to that plate to have a final STD concentration of 3 μM. A certain proportion of ultrapure water was used to dilute the diluent according to the peak shape. The concentrations of the standard samples were changed according to the LC-MS signal response.
Procedure for sample analysis: The plate was placed into the well plate autosampler. The samples were evaluated by LC-MS/MS analysis.
Data analysis: All calculations were carried out using Microsoft Excel.
The filtrate was analyzed and quantified against a standard of known concentration using LC coupled with mass spectral peak identification and quantitation. Solubility values of the test compound and control compound were calculated as follows:
[formula] • Any value of the compounds that was not within the specified limits was rejected and the experiment was repeated.

Chain of PI3Kγ (P48736 whole entry, species assumed): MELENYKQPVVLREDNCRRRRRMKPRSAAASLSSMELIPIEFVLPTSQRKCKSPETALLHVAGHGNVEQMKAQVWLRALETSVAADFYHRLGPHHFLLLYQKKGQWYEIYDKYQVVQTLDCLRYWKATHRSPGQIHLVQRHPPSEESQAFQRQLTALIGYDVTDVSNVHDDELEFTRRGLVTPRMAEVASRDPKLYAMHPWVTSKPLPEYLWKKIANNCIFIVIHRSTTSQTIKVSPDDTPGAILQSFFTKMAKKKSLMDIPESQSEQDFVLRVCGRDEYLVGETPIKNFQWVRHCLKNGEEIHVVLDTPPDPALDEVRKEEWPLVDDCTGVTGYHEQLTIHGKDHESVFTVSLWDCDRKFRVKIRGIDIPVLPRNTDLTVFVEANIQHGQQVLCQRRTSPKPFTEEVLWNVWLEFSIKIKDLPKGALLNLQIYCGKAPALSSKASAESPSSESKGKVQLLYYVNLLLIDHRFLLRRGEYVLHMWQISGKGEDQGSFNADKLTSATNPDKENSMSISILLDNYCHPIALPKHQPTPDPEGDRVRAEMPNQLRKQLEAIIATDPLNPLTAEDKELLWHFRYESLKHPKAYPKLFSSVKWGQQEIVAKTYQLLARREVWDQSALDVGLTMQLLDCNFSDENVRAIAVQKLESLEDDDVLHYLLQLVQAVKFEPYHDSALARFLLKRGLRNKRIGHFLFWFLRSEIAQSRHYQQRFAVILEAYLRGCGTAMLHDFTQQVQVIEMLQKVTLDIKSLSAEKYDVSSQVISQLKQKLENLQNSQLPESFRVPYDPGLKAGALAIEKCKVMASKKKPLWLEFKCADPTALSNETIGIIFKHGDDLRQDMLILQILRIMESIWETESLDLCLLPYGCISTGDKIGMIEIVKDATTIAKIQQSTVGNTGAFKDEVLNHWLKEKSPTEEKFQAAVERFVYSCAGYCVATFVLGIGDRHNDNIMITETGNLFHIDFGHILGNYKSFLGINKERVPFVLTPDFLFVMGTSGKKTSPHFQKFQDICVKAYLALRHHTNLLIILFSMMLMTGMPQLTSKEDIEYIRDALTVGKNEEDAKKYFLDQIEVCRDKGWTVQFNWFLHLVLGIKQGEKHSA

Row | SMILES | IC50 (PI3Kγ) | IC50 (PI3Kδ) | IC50 (PI3K gamma) | solubility at 2 h [1]
1 | CCC(=O)Nc1nc(C)c(-c2cc3c(c(P(C)(C)=O)c2)C(=O)N([C@@H](C)C2CC2)C3)s1 [Compound 2, (S)-N-(5-(2-(1-cyclopropylethyl)-7-(dimethylphosphoryl)-1-oxoisoindolin-5-yl)-4-methylthiazol-2-yl)propionamide] | 3.7 nM | > 1000 nM | – | –
2 | CC(=O)Nc1nc(C)c(-c2cnc3c(c2)CN([C@@H](C)C2CC2)C3=O)s1 [Compound 8, (S)-N-(5-(6-(1-cyclopropylethyl)-7-oxo-6,7-dihydro-5H-pyrrolo[3,4-b]pyridin-3-yl)-4-methylthiazol-2-yl)acetamide] | 34 nM | 361 nM | 115 nM | –
3 | CC(=O)Nc1nc(C)c(-c2ccc3c(c2)CN([C@@H](C)C2CC2)C3=O)s1 [Compound 10, (S)-N-(5-(2-(1-cyclopropylethyl)-1-oxoisoindolin-5-yl)-4-methylthiazol-2-yl)acetamide] | 2.5 nM | 359 nM | 290 nM | –
4 | CC(=O)Nc1nc(C)c(-c2cc3c(c(S(C)(=O)=O)n2)C(=O)N([C@@H](C)C2CC2)C3)s1 [Compound 19, (S)-N-(5-(2-(1-cyclopropylethyl)-4-(methylsulfonyl)-3-oxo-2,3-dihydro-1H-pyrrolo[3,4-c]pyridin-6-yl)-4-methylthiazol-2-yl)acetamide] | 1.6 nM | > 1000 nM | 28 nM | –
5 | CC(=O)Nc1nc(C)c(-c2cc3c(c(NC(=O)C4CC4)n2)C(=O)N([C@@H](C)C2CC2)C3)s1 [Compound 26, (S)-N-(6-(2-acetamido-4-methylthiazol-5-yl)-2-(1-cyclopropylethyl)-3-oxo-2,3-dihydro-M-pyrrolo[3,4-c]pyridin-4-yl)cyclopropanecarboxamide] | 1.4 nM | > 1000 nM | – | –
6 | CC(=O)Nc1nc(C)c(-c2cc3c(c(N4CCN(C(C)=O)CC4)n2)C(=O)N([C@@H](C)C2CC2)C3)s1 [Compound 40, (S)-N-(5-(4-(4-acetylpiperazin-1-yl)-2-(1-cyclopropylethyl)-3-oxo-2,3-dihydro-1H-pyrrolo[3,4-c]pyridin-6-yl)-4-methylthiazol-2-yl)acetamide] | 2 nM | – | 6.3 nM | 25 µM (≈ 12.1 µg/mL)
7 | CC(=O)Nc1ncc(-c2cc3c(c(N4CCOCC4)n2)C(=O)N([C@@H](C)C2CC2)C3)s1 [Compound 41, (S)-N-(5-(2-(1-cyclopropylethyl)-4-morpholino-3-oxo-2,3-dihydro-1H-pyrrolo[3,4-c]pyridin-6-yl)thiazol-2-yl)acetamide] | 2.3 nM | – | – | 3.5 µM (≈ 1.5 µg/mL)
8 | COCCOc1nc(-c2sc(NC(C)=O)nc2C)cc2c1C(=O)N([C@@H](C)C1CC1)C2 [Compound 42, (S)-N-(5-(2-(1-cyclopropylethyl)-4-(2-methoxyethoxy)-3-oxo-2,3-dihydro-1H-pyrrolo[3,4-c]pyridin-6-yl)-4-methylthiazol-2-yl)acetamide] | 1.8 nM | – | – | 2.6 µM (≈ 1.12 µg/mL)
9 | CC(=O)Nc1nc(C)c(-c2cc3c(c(N4CCC(O)CC4)n2)C(=O)N([C@@H](C)C2CC2)C3)s1 [Compound 46, (S)-N-(5-(2-(1-cyclopropylethyl)-4-(4-hydroxypiperidin-1-yl)-3-oxo-2,3-dihydro-1H-pyrrolo[3,4-c]pyridin-6-yl)-4-methylthiazol-2-yl)acetamide] | 0.7 nM | – | 3.8 nM | 6.1 µM (≈ 2.78 µg/mL)
10 | CC(=O)Nc1nc(C)c(-c2cc3c(c(N4CC(O)C4)n2)C(=O)N([C@@H](C)C2CC2)C3)s1 [Compound 48, (S)-N-(5-(2-(1-cyclopropylethyl)-4-(3-hydroxyazetidin-1-yl)-3-oxo-2,3-dihydro-1H-pyrrolo[3,4-c]pyridin-6-yl)-4-methylthiazol-2-yl)acetamide] | 0.84 nM | – | 14 nM | –
11 | CC(=O)Nc1nc(C)c(-c2cc3c(c(N4CC(S(C)(=O)=O)C4)n2)C(=O)N([C@@H](C)C2CC2)C3)s1 [Compound 49, (S)-N-(5-(2-(1-cyclopropylethyl)-4-(3-(methylsulfonyl)azetidin-1-yl)-3-oxo-2,3-dihydro-1H-pyrrolo[3,4-c]pyridin-6-yl)-4-methylthiazol-2-yl)acetamide] | 1 nM | – | 38 nM | –
12 | CC(=O)Nc1nc(C)c(-c2cc3c(c(OCCO)n2)C(=O)N([C@@H](C)C2CC2)C3)s1 [Compound 50, (S)-N-(5-(2-(1-cyclopropylethyl)-4-(2-hydroxyethoxy)-3-oxo-2,3-dihydro-1H-pyrrolo[3,4-c]pyridin-6-yl)-4-methylthiazol-2-yl)acetamide] | 1 nM | – | 20 nM | –
13 | CC(=O)Nc1nc(C)c(-c2cc3c(c(OC4COC4)n2)C(=O)N([C@@H](C)C2CC2)C3)s1 [Compound 52, (S)-N-(5-(2-(1-cyclopropylethyl)-4-(oxetan-3-yloxy)-3-oxo-2,3-dihydro-1H-pyrrolo[3,4-c]pyridin-6-yl)-4-methylthiazol-2-yl)acetamide] | 1.1 nM | – | 12 nM | –
14 | CC(=O)Nc1nc(C)c(-c2cc3c(c(CN4CCOCC4)n2)C(=O)N([C@@H](C)C2CC2)C3)s1 [Compound 54, (S)-N-(5-(2-(1-cyclopropylethyl)-4-(morpholinomethyl)-3-oxo-2,3-dihydro-1H-pyrrolo[3,4-c]pyridin-6-yl)-4-methylthiazol-2-yl)acetamide] | 4.6 nM | – | 17 nM | –
15 | CC(=O)Nc1nc(C)c(-c2cc3c(c(C(C)N4CCOCC4)n2)C(=O)N([C@@H](C)C2CC2)C3)s1 (stereo partly drawn) [Compound 55, N-(5-(2-((S)-1-cyclopropylethyl)-4-(1-morpholinoethyl)-3-oxo-2,3-dihydro-1H-pyrrolo[3,4-c]pyridin-6-yl)-4-methylthiazol-2-yl)acetamide] | 1.7 nM | – | 18 nM | –
16 | C[C@H](NC(=O)c1c(N)nn2cccnc12)c1cc2cccc(C#Cc3cnn(C)c3)c2c(=O)n1-c1ccccc1 [IPI-549, reference compound] | – | – | – | 6.4 µM (≈ 3.38 µg/mL)
